From US20250109118A1, “HETEROCYCLIC COMPOUNDS AS SHP2 INHIBITORS, COMPOSITIONS COMPRISING THE HETEROCYCLIC COMPOUND, AND METHODS OF USE THEREOF” (JS INNOMED HOLDINGS LTD., priority 2021, published 2025)

How the values were obtained:
[1] = tested on: MiaPaCa-2 cells; assay: MiaPaCa-2 Cell proliferation assay in 3D culture (CCK8); type: cell-based; details: Homo sapiens, MIA PaCa-2, 120 h; 3D spheroid culture, 5 days with compound, CCK8 readout
Outline: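 Cells grown as spheroids (2500/well, ultra-low attachment, 10% FBS) for 24 h, then exposed 5 days to ten 3-fold compound dilutions at 0.1% DMSO. Viability by CCK8/WST-8, 1.5 h at 37 °C, absorbance 450 nm; IC50 from triplicates.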

[2] = biological target: T1, SHP2 (PTPN11/SHP2-FL) (Homo sapiens, UniProt Q06124); assay: SHP2 biochemical assay (DiFMUP prompt fluorescence); details: 0.5 nM SHP2, 0.35 μM activating peptide, DiFMUP 100 μM; read-out: SHP2 bichemical activity (IC50)
T1 construct: SHP2 (PTPN11/SHP2-FL, RBC produced, no cat #); purchased RBC no cat #
T1 sequence (Q06124 1-593): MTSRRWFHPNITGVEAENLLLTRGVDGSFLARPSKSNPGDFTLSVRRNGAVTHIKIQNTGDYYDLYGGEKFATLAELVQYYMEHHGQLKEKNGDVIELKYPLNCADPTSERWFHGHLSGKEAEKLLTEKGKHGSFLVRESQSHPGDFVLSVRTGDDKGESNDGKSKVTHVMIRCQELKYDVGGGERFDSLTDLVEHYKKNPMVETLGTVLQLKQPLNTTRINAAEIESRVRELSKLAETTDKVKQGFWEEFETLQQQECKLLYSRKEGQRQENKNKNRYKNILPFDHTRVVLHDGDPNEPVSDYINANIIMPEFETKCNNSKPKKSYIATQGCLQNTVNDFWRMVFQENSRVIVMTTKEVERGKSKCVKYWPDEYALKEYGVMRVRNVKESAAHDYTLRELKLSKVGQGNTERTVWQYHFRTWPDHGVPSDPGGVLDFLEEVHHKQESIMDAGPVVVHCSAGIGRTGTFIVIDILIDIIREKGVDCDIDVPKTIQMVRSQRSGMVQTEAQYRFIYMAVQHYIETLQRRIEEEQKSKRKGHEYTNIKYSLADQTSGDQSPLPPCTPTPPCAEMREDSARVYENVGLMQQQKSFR
Description: SHP2 is allosterically activated through binding of bis-tyro syiphorphorylated peptides to its Src Homology 2 (SH2) domains. The latter activation step leads to the release of the auto-inhibitory interface of SHP2, which in turn renders the SHP2 PTP active and available for substrate recognition and reaction catalysis. The catalytic activity of SHP2 was monitored using the surrogate substrate DiFMUP in a prompt fluorescence assay format. Specifically, the phosphatase reactions were performed at room temperature in 384-well black polystyrene plate, flat bottom, low flange, non-binding surface (Corning, Cat #3575) using a final reaction volume of 20 μL and the following assay buffer conditions: 60 mM HEPES, pH 7.2, 75 mM NaCl, 75 mM KCl, 1 mM EDTA, 0.01% Brij-35, 5 mM DTT, and 10% DMSO (final). The inhibition of SHP2 from the tested compounds (final concentrations varying from 0.003-100 μM) was monitored using an assay in which 0.5 nM of SHP2 (PTPN11/SHP2-FL, RBC produced, no cat #) was incubated with 0.35 μM of the peptide H2NLN(pY)IDLDLV(dPEG8)LST(pY)ASINFQK-amide. After 20 minutes of incubation at room temperature, the surrogate substrate DiFMUP (6,8-difluoro-7-hydroxy-4-methylcoumarin, Invitrogen, cat #D6567, 100 μM final concentration) was added to the reaction. The fluorescence signal was monitored using a microplate reader (Envision, Perkin-Elmer) using excitation and emission wavelengths of 355 nm and 460 nm, respectively. The inhibitor dose response curves were analyzed using normalized IC50 regression curve fitting with control based normalization.
The IC50 values of for Compounds disclosed are listed in Table 2, A: ≤10 nM; B: >10 nM and ≤100 nM; C: >100 nM and ≤1 uM; and D: >1 μM.

| Structure (SMILES) | IC50 [1] [nM] | IC50 [2] [nM] |
| --- | --- | --- |
| CC1(N)CCN(c2cnc(Sc3cccc(C(=O)NS(=O)(=O)C4CC4)c3Cl)cn2)CC1 [Example 18, 3-((5-(4-amino-4-methylpiperidin-1-yl)pyrazin-2-yl)thio)-2-chloro-N-(cyclopropylsulfonyl)benzamide] | 5000 to 50000 | 10 to 100 |
| CC1(CN)CCN(c2cnc(Sc3cccc(C(=O)NS(C)(=O)=O)c3Cl)c(N)n2)CC1 [Example 37, 3-((3-amino-5-(4-(aminomethyl)-4-methylpiperidin-1-yl)pyrazin-2-yl)thio)-2-chloro-N-(methylsulfonyl)benzamide] | 5000 to 50000 | 10 to 100 |
| CC1(CN)CCN(c2cnc(Sc3cccc(C(=O)NS(=O)(=O)c4ccccn4)c3Cl)c(N)n2)CC1 [Example 35, 3-((3-amino-5-(4-(aminomethyl)-4-methylpiperidin-1-yl)pyrazin-2-yl)thio)-2-chloro-N-(pyridin-2-ylsulfonyl)benzamide] | ≤ 500 | ≤ 10 |
| CC1(N)CCN(c2cnc(Sc3cccc(S(=O)(=O)NC(=O)c4ccccc4)c3Cl)c(N)n2)CC1 [Example 8, N-((3-((3-amino-5-(4-amino-4-methylpiperidin-1-yl)pyrazin-2-yl)thio)-2-chlorophenyl)sulfonyl)benzamide] | 5000 to 50000 | 10 to 100 |
| CC1(N)CCN(c2cnc(Sc3cccc(C(=O)NS(=O)(=O)C4CCCCC4)c3Cl)cn2)CC1 [Example 20, 3-((5-(4-amino-4-methylpiperidin-1-yl)pyrazin-2-yl)thio)-2-chloro-N-(cyclohexylsulfonyl)benzamide] | 5000 to 50000 | 10 to 100 |
| CC1(N)CCN(c2cnc(Sc3cccc(NC(=O)NS(=O)(=O)c4ccccc4)c3Cl)c(N)n2)CC1 [Example 4, N-((3-((3-amino-5-(4-amino-4-methylpiperidin-1-yl)pyrazin-2-yl)thio)-2-chlorophenyl)carbamoyl)benzenesulfonamide] | ≤ 500 | ≤ 10 |
| CC1(CN)CCN(c2cnc(Sc3cccc(NC(=O)NS(=O)(=O)C4CC4)c3Cl)c(N)n2)CC1 [Example 43, N-((3-((3-amino-5-(4-(aminomethyl)-4-methylpiperidin-1-yl)pyrazin-2-yl)thio)-2-chlorophenyl)carbamoyl)cyclopropanesulfonamide] | ≤ 500 | ≤ 10 |
| CC1(CN)CCN(c2cnc(Sc3cccc(C(=O)NS(=O)(=O)C4CCCC4)c3Cl)cn2)CC1 [Example 30, 3-((5-(4-(aminomethyl)-4-methylpiperidin-1-yl)pyrazin-2-yl)thio)-2-chloro-N-(cyclopentylsulfonyl)benzamide] | 500 to 5000 | ≤ 10 |
| Nc1nc(N2CCC3(CC2)COC[C@H]3N)cnc1Sc1cccc(C(=O)NS(=O)(=O)c2ccccc2)c1Cl [Example 31, (S)-3-((3-amino-5-(4-amino-2-oxa-8-azaspiro[4.5]decan-8-yl)pyrazin-2-yl)thio)-2-chloro-N-(phenylsulfonyl)benzamide] | ≤ 500 | ≤ 10 |
| CC1(CN)CCN(c2cnc(Sc3cccc(NC(=O)NS(C)(=O)=O)c3Cl)cn2)CC1 [Example 29, N-((3-((5-(4-(aminomethyl)-4-methylpiperidin-1-yl)pyrazin-2-yl)thio)-2-chlorophenyl)carbamoyl)methanesulfonamide] | ≤ 500 | ≤ 10 |
| CC1(CN)CCN(c2cnc(Sc3cccc(C(=O)NS(=O)(=O)c4cccnc4)c3Cl)c(N)n2)CC1 [Example 38, 3-((3-amino-5-(4-(aminomethyl)-4-methylpiperidin-1-yl)pyrazin-2-yl)thio)-2-chloro-N-(pyridin-3-ylsulfonyl)benzamide] | 500 to 5000 | ≤ 10 |
| CC1(CN)CCN(c2cnc(Sc3cccc(NC(=O)NS(C)(=O)=O)c3Cl)c(N)n2)CC1 [Example 40, N-((3-((3-amino-5-(4-(aminomethyl)-4-methylpiperidin-1-yl)pyrazin-2-yl)thio)-2-chlorophenyl)carbamoyl)methanesulfonamide] | ≤ 500 | ≤ 10 |
| CC1(CN)CCN(c2cnc(Sc3cccc(C(=O)NS(=O)(=O)c4ccncc4)c3Cl)c(N)n2)CC1 [Example 39, 3-((3-amino-5-(4-(aminomethyl)-4-methylpiperidin-1-yl)pyrazin-2-yl)thio)-2-chloro-N-(pyridin-4-ylsulfonyl)benzamide] | 5000 to 50000 | 10 to 100 |
| CC1(CN)CCN(c2cnc(Sc3cccc(NC(=O)NS(=O)(=O)C4CC4)c3Cl)cn2)CC1 [Example 32, N-((3-((5-(4-(aminomethyl)-4-methylpiperidin-1-yl)pyrazin-2-yl)thio)-2-chlorophenyl)carbamoyl)cyclopropanesulfonamide] | ≤ 500 | ≤ 10 |
| CC1(N)CCN(c2cnc(Sc3cccc(NC(=O)NS(=O)(=O)c4ccccc4)c3Cl)cn2)CC1 [Example 1, N-((3-((5-(4-amino-4-methylpiperidin-1-yl)pyrazin-2-yl)thio)-2-chlorophenyl)carbamoyl)benzenesulfonamide] | ≤ 500 | 10 to 100 |

Results, then the compound that gave them:

| IC50 [1] [nM] | IC50 [2] [nM] | Structure (SMILES) |
| --- | --- | --- |
| 500 to 5000 | ≤ 10 | CC1(CN)CCN(c2cnc(Sc3cccc(C(=O)NS(=O)(=O)c4ccncc4)c3Cl)cn2)CC1 [Example 28, 3-((5-(4-(aminomethyl)-4-methylpiperidin-1-yl)pyrazin-2-yl)thio)-2-chloro-N-(pyridin-4-ylsulfonyl)benzamide] |
| 500 to 5000 | ≤ 10 | CC1(CN)CCN(c2cnc(Sc3cccc(C(=O)NS(=O)(=O)c4cccnc4)c3Cl)cn2)CC1 [Example 24, 3-((5-(4-(aminomethyl)-4-methylpiperidin-1-yl)pyrazin-2-yl)thio)-2-chloro-N-(pyridin-3-ylsulfonyl)benzamide] |
| ≤ 500 | ≤ 10 | CC1(CN)CCN(c2cnc(Sc3cccc(C(=O)NS(=O)(=O)c4ccccc4)c3Cl)cn2)CC1 [Example 21, 3-((5-(4-(aminomethyl)-4-methylpiperidin-1-yl)pyrazin-2-yl)thio)-2-chloro-N-(phenylsulfonyl)benzamide] |
| ≤ 500 | ≤ 10 | CC1(CN)CCN(c2cnc(Sc3cccc(C(=O)NS(=O)(=O)C4CC4)c3Cl)cn2)CC1 [Example 25, 3-((5-(4-(aminomethyl)-4-methylpiperidin-1-yl)pyrazin-2-yl)thio)-2-chloro-N-(cyclopropylsulfonyl)benzamide] |
| ≤ 500 | 10 to 100 | CC1(N)CCN(c2cnc(Sc3cccc(S(=O)(=O)NC(=O)c4ccccc4)c3Cl)cn2)CC1 [Example 33, N-((3-((5-(4-amino-4-methylpiperidin-1-yl)pyrazin-2-yl)thio)-2-chlorophenyl)sulfonyl)benzamide] |
| ≤ 500 | ≤ 10 | CC1(CN)CCN(c2cnc(Sc3cccc(NC(=O)NS(=O)(=O)c4ccccc4)c3Cl)cn2)CC1 [Example 2, N-((3-((5-(4-(aminomethyl)-4-methylpiperidin-1-yl)pyrazin-2-yl)thio)-2-chlorophenyl)carbamoyl)benzenesulfonamide] |
| 500 to 5000 | ≤ 10 | CC1(CN)CCN(c2cnc(Sc3cccc(C(=O)NS(=O)(=O)c4ccccc4F)c3Cl)cn2)CC1 [Example 23, 3-((5-(4-(aminomethyl)-4-methylpiperidin-1-yl)pyrazin-2-yl)thio)-2-chloro-N-((2-fluorophenyl)sulfonyl)benzamide] |
| 500 to 5000 | ≤ 10 | CC1(CN)CCN(c2cnc(Sc3cccc(C(=O)NS(=O)(=O)c4ccccc4F)c3Cl)c(N)n2)CC1 [Example 34, 3-((3-amino-5-(4-(aminomethyl)-4-methylpiperidin-1-yl)pyrazin-2-yl)thio)-2-chloro-N-((2-fluorophenyl)sulfonyl)benzamide] |
